What was measured:
NPC1 [1] = target: T1, NPC1 (Mus musculus, UniProt O35604); assay: Effects of NPC1 inhibitor U18666A on WT mouse pancreas; format: in vivo; conditions: 15 days
T1 sequence (O35604 23-1277): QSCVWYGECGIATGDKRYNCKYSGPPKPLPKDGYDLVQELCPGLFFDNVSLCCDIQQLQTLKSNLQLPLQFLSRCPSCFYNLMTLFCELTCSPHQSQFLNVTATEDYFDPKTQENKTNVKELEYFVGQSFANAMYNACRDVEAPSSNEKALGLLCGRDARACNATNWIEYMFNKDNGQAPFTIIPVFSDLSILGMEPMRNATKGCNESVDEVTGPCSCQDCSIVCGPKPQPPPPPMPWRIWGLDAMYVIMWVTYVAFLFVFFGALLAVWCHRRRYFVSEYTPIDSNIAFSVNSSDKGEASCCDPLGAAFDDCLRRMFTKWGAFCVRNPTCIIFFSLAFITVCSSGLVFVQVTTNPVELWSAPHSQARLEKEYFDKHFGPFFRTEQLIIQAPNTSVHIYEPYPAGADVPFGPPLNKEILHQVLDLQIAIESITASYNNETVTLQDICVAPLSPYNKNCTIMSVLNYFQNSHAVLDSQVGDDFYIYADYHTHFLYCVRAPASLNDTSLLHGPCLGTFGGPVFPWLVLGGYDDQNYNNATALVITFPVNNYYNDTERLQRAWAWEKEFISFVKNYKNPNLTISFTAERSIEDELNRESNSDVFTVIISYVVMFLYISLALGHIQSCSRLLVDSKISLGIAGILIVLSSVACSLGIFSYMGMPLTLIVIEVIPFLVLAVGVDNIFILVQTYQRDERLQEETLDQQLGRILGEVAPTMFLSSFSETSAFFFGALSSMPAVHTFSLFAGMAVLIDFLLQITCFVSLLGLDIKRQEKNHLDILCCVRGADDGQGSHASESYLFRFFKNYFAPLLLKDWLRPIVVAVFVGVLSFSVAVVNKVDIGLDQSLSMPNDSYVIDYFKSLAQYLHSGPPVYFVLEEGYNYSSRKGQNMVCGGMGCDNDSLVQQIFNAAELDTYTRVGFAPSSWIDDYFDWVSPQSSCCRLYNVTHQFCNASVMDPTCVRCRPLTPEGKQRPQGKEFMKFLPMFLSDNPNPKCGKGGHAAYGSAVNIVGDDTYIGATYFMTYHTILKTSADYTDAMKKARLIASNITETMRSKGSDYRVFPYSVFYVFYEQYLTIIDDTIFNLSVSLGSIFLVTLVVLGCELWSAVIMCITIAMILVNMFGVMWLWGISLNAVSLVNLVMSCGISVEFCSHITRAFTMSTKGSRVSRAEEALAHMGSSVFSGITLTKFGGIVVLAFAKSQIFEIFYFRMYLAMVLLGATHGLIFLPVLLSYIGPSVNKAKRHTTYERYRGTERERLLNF
Experimental: FIGS. 9A-9E show cerulein pancreatitis decreases pancreatic levels of GNPTAB and mediators of cholesterol trafficking through LE/Ly. (A, D, and E) IB analysis of the indicated proteins in pancreas of WT mice subjected to CER-AP and in Gnptab^−/− mice. NS, nonspecific band. (B and C) Cholesterol content was measured in pancreas of (B) WT mice that received daily i.p. injections of the NPC1 inhibitor U18666A (10 mg/kg) or vehicle for 15 days and (C) Lamp2^−/− mice. Each symbol in B, C, and E represents an individual mouse. Values are mean±SEM from 3 to 5 mice per condition. ***P<0.001 vs. the same parameter in WT control/untreated or saline-treated mice. Significance was determined by 2-tailed Student's t test (B and C) or 1-way ANOVA followed by Tukey's multiple comparison test (E).
(§1) FIGS. 10A-10N show deranged cholesterol metabolism causes acinar cell damage, while its normalization ameliorates experimental pancreatitis. (A-D) Cholesterol content and trypsin activity were measured (per mg protein) in WT mouse acinar cells incubated for 1 hour without and with methyl-β-cyclodextrin (MCD; 10 mM) or cholesterol-loaded MCD (MCD-Chol; 200 μg/mL), in the presence or absence of 100 nM CCK. Values are expressed relative to those in cells without MCD/MCD-Chol. (E-J) WT mice received daily i.p. injections of the LXR agonist T0901317 (T09), simvastatin (Sim; 20 mg/kg each), or vehicle. On day 4, mice were subjected to CER-AP and pancreata collected for analyses (see also FIG. 20). Cholesterol content (E), trypsin activity (F), and pancreas histopathology (H&E staining; G) were measured. (H, I, L, and N) IB analysis of markers/mediators of autophagy (LC3, p62), ER stress (CHOP, GRP-78), and mitophagy (Parkin). Ub, ubiquitylated proteins. (J) Mitochondrial fragmentation was assessed by immunostaining for Tom20, as detailed in FIG. 7G. (K and L) Mouse acinar cells were treated for 16 hours with LDL (30 μg/mL) or the combination of LDL and 10 μM U18666A. (M and N) Mice received injections of U18666A as detailed in FIG. 9B. Pancreas histopathology (H&E staining; M) and levels of autophagy markers/mediators (N) were measured. Each symbol in A-F and I represents an individual mouse or cell preparation. Values are mean±SEM from 3 to 7 mice or cell preparations per condition. ^§ P<0.05, ^§§ P<0.01 vs. control cells (without MCD/MCD-Chol). ***P<0.001 vs. saline-treated mice. ^#P<0.05, ^##P<0.01, ^###P<0.001 vs. CER-AP alone (no inhibitors). Significance was determined by 2-tailed Student's t test (A-D) or 1-way ANOVA followed by Tukey's multiple comparison test (E, F, and I). Scale bars: 10 μm.
viii. In Vivo Treatments of Mice
12-week-old WT mice were subjected for 4 consecutive days to daily i.p. injections of 20 mg/kg simvastatin (8,9) or 20 mg/kg T0901317 (10); or 10 mg/kg U18666A for 15 days (11). Control mice received vehicle injections. Some of the simvastatin- and T0901317-treated mice were subjected to CER-AP on day 4, as indicated in corresponding figures.
(§2) Total cholesterol content was measured with Cholesterol Assay kit per manufacturer's instructions. Samples of mouse pancreas and liver, cell pellet homogenates, subcellular fractions, isolated mitochondria, and serum were diluted in the reaction buffer containing cholesterol probe and incubated at 37° C. for 1 h in the dark. To measure total cholesterol, the samples were subjected to digestion with cholesterol esterase. To measure non-esterified cholesterol, the esterase was omitted from the assay.
Pancreatitis responses were measured as previously described (1-7). Serum amylase and lipase were measured in a Hitachi 707 analyzer. Acinar cell vacuolization and necrosis were quantified on H&E stained pancreatic tissue sections; at least 1000 acinar cells/mouse were analyzed in several high-power fields. ATP was measured in tissue homogenates using bioluminescence assay (3-5).

NPC1 [2] = target: T1, NPC1; assay: Effects of U18666A with LDL on WT acinar cells; format: cell-based; conditions: LDL 30 μg/mL + 10 μM U18666A, 16 hours
Experimental: as §1
To examine the effect of disrupted cholesterol turnover, WT acinar cells were incubated with LDL-cholesterol in the presence and absence of the NPC1 inhibitor U18666A. U18666A caused cholesterol accumulation in LE/Ly (filipin staining; FIG. 10K), resulting in impaired autophagy (manifested by concomitant accumulation of LC3-II and ubiquitylated proteins) and increases in CHOP and Parkin (FIG. 10L).
Immunoblots were developed using enhanced chemiluminescence detection kit (Pierce), and band intensities were quantified by densitometry using FluorChem HD2 imaging system (Alpha Innotech/ProteinSimple).
Staining for neutral lipids and free cholesterol was performed by incubation of fixed-frozen tissue sections or fixed cells with, respectively, 2 μg/ml BODIPY493/503 for 45 min or 100 µg/ml filipin for 2 h at room temperature. For double labeling, BODIPY493/503 or filipin were applied after fixed-frozen tissue or cell sections incubated with primary and secondary antibodies.

human acinar cells = assay: Total cholesterol content of human acinar cells (ex vivo pancreatitis models); format: cell-based; conditions: for cholesterol overload, human acinar cells: ex-vivo pancreatitis, 1 h, 100 nM CCK, 1 mM carbachol or 500 μM TLCS
Experimental: (§3) FIGS. 8A-8M show derangement of cholesterol metabolism in experimental pancreatitis. Characteristics of cholesterol metabolism were measured, as detailed in FIGS. 4A-4R, in pancreas of WT mice subjected to pancreatitis induced with cerulein (CER-AP), L-arginine (Arg-AP), or CDE diet (CDE-AP) (A, B, and E-G); ex vivo pancreatitis induced in WT mouse (C and I-M) or human acinar cells (D) with 100 nM CCK (CCK-AP) or 1 mM carbachol; and isolated pancreatic mitochondria (H). (B) Cholesterol ester (CE) heatmap; each column represents an individual mouse. (F) IB analysis of the indicated proteins. (G) LAL activity was measured by a fluorogenic assay (n=6 mice per condition). (H) Cholesterol content was measured by enzymatic assay. (I-M) Filipin colocalization with indicated proteins was quantified as detailed in FIGS. 2A-2L. Each symbol in A, C-E, and H represents an individual mouse, or cell or mitochondria preparation (n=3-15 per condition). Each symbol in J, K, and M corresponds to 20-30 cells in a different field (n=10-20 fields from 3 cell preparations per condition). Values are mean±SEM. *P<0.05, **P<0.01, ***P<0.001 vs. the same parameter in control/untreated pancreas, acinar cells or isolated mitochondria. Significance was determined by 2-tailed Student's t test (B, E, H, J, K, and M) or 1-way ANOVA followed by Tukey's multiple comparison test (A, C, and D). Scale bars: 10 μm.
(§4) Parameters of cholesterol metabolism were measured in (A, B, E, F) pancreas of mice subjected to pancreatitis induced with cerulean (CER-AP), L-arginine (Arg-AP), or combination of EtOH+palmitoleic acid (EtOH+POA); and (C) ex-vivo models on mouse and human acinar cells treated for 1 h with 100 nM CCK, […] or 500 μM TLCS. In (A), each column in CE heatmap represents an individual mouse. (B, C) Total cholesterol content was measured with cholesterol assay kit (Abcam, ab65390). […] Each symbol corresponds to 20-30 cells in each of 8 high-expression (qPCR) of proteins regulating cholesterol synthesis (4 mice/group). (B-D) Each symbol represents an individual animal or cell preparation. (A-D, F) Values are mean±SE (*p<0.05, **p<0.01, ***p<0.001 vs saline or control). Signficance was determined by 2-tailed student's t test.
(§5) Ex vivo pancreatitis models were performed on mouse and human acinar cells, and human pancreas slices by incubation with supramaximal CCK (100 nM) or carbachol (1 mM), as described previously (80, 81).
Human pancreas slices were obtained as in (12), from portions of live normal human pancreata from pre-terminal donors that were not used for transplantation and diverted to research (provided by Trillium Gift of Life Network, Toronto, Ontario, year 2020) or from normal portions of pancreatic cancer operations. Pancreas was cut into ~3×3×3 mm pieces and embedded with 37° C. low melting 3.8% agarose gel in extracellular solution containing (mM): 125 NaCl, 2.5 KCl, 1 MgCl2, 2 CaCl2, 1.25 NaH2PO4, 26 NaHCO3, 2 sodium pyruvate, 0.25 ascorbic acid, 3 myo-inositol, 6 lactic acid, and 7 glucose, and placed on ice to solidify the gel. The gelled tissue blocks were sliced with Vibratome into 120 μm-thick slices; slices were washed with the same extracellular solution, placed in 199 medium containing 0.1 mg/mL soybean trypsin inhibitor, and treated with CCK-8 (CCK) or carbachol for ex-vivo pancreatitis.
Total cholesterol content was measured with Cholesterol Assay kit per manufacturer's instructions. […]

mouse acinar cells = assay: Total cholesterol content of mouse acinar cells (ex vivo pancreatitis models or cholesterol chelator); format: cell-based; parameters: total cholesterol in acinar cells, physiologic doses: dose or concentration left out as unconfirmed; conditions: for cholesterol overload, mouse acinar cells: ex-vivo pancreatitis, 1 h, 100 nM CCK, 1 mM carbachol or 500 μM TLCS
Experimental: as §3, §4, §5, §2
Fluorescence intensity (for cholesterol) and absorbance (for TAG) were measured in a Tecan microplate reader. Each measurement was in duplicate, and the values were normalized per mg total protein in the sample.

[3] = supramaximal (100 nM) CCK-8 or carbachol, ex vivo AP

SMILES	cholesterol content in WT mouse pancreas, U18666A (NPC1 [1]; 10 mg/kg daily i.p.)	LC3-II in mouse pancreas (NPC1 [1]; 10 mg/kg i.p. daily)	acinar cell vacuolization, mice (NPC1 [1]; 10 mg/kg i.p. daily)	inflammation, mouse pancreas (NPC1 [1]; 10 mg/kg i.p. daily)	p62 in mouse pancreas (NPC1 [1]; 10 mg/kg i.p. daily)	ubiquitylated proteins in mouse pancreas (NPC1 [1]; 10 mg/kg i.p. daily)	necrosis, mouse pancreas (NPC1 [1]; 10 mg/kg i.p. daily, up to ~) [%]	CHOP, acinar cells (NPC1 [2])	LC3-II (impaired autophagy), acinar cells (NPC1 [2])	Parkin, acinar cells (NPC1 [2])	cholesterol in LE/Ly (filipin staining) (NPC1 [2])	ubiquitylated proteins (impaired autophagy), acinar cells (NPC1 [2])	cholesterol overload, human acinar cells (human acinar cells)	cholesterol content, human acinar cells, supramaximal stimulation (human acinar cells; [3])	cholesterol overload, mouse acinar cells (mouse acinar cells)	total cholesterol in acinar cells, physiologic doses (mouse acinar cells; physiologic doses of CCK or carbachol)	cholesterol content, mouse acinar cells, supramaximal stimulation (mouse acinar cells; [3])
CCN(CC)CCO[C@H]1CC[C@@]2(C)C(=CC[C@@H]3[C@@H]2CC[C@]2(C)C(=O)CC[C@@H]32)C1 [U18666A, 3-beta-[2-(diethylamino)ethoxy] androst-5-en-17-one]	elevated	accumulation	increased	inflammation	accumulation	accumulation	≤ 20	increases	accumulation	increases	accumulation	accumulation	–	–	–	–	–
C[N+](C)(C)CCOC(N)=O [carbachol]	–	–	–	–	–	–	–	–	–	–	–	–	prominent	increased	prominent	did not alter	increased
C[C@H](CCC(=O)NCCS(=O)(=O)O)[C@H]1CC[C@H]2[C@@H]3CC[C@@H]4C[C@H](OS(=O)(=O)O)CC[C@]4(C)[C@H]3CC[C@]12C [TLCS]	–	–	–	–	–	–	–	–	–	–	–	–	prominent	–	prominent	–	–

From patent publication US20260325485A1, “COMPOSITIONS AND METHODS FOR TREATING PANCREATITIS” (The United States Government as represented by the …, priority 2022, published 2026)
